Test results from patent US9040516B2, “Uracil derivative and use thereof for medical purposes” (SUMITOMO DAINIPPON PHARMA CO., LTD., priority 2011, dated 2015).
pIC50: −log10 of the molar value.

target: T1, human neutrophil elastase (Homo sapiens, UniProt P08246); test: Inhibitory action against human neutrophil elastase (Test Example 1; fluorogenic substrate MeOSuc-AAPV-AMC, buffer with 2M NaCl, 0.002% Brij-35); format: biochemical; conditions: 37° C., read-out: IC50 value (compound concentration required for 50% inhibition of human neutrophil elastase)
T1 construct: purchased Elastin Products Company
T1 sequence (P08246 30-267): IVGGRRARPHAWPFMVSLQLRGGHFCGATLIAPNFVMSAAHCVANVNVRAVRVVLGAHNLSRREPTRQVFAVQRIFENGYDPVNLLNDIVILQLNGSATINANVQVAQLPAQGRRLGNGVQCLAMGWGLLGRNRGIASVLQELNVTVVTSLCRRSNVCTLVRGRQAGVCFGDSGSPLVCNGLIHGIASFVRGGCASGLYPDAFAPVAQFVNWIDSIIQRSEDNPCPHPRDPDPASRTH
Protocol: Assay buffer (0.4 unit/ml HNE (human neutrophil elastase, available from Elastin Products Company), 200 mM HEPES [N-(2-hydroxyethyl)piperazine-N′-(2-ethanesulfonic acid)], pH 7.5, 2M NaCl, 0.002% Brij-35) 100 μl, water for injection 40 μl and DMSO (dimethyl sulfoxide) solution of the present compound 20 μl were mixed in a 96 well plate and the mixed solutions were pre-incubated at 37° C. for five minutes. After pre-incubation, MeOSuc-AAPV-AMC (methoxysuccinyl-alanyl-alanyl-prolyl-valyl-aminomethyl cumaride (available from Sigma Aldrich Co.) solution as fluorogenic substrate (which was dissolved in 10% DMSO solution so as to adjust to 0.5 mM) 40 μl was added to the above-prepared mixed solution so as to initiate the reaction, and the mixture was incubated at 37° C. for five minutes. The fluorescence intensity of AMC was measured at an excitation wavelength of 380 nm and a fluorescence wavelength of 460 nm and the inhibition ratio was determined.

Molecule | pIC50
Cc1c(-c2ccnn2-c2ccc(C#N)cc2)c(=O)n(C)c(=O)n1-c1cccc(C(F)(F)F)n1 [Example 33, 4-[5-[3,6-dimethyl-2,4-dioxo-1-(6-trifluoromethylpyridine-2-yl)-1,2,3,4-tetrahydropyrimidin-5-yl]-1H-pyrazol-1-yl]benzonitrile] | 4.13
Cc1c(-c2ccnn2-c2ccc(C#N)cc2)c(=O)n(C)c(=O)n1-c1cccc(C(=O)O)c1 [Example 103, 3-[5-[1-(4-Cyanophenyl)-1H-pyrazol-5-yl]-3,6-dimethyl-2,4-dioxo-3,4-dihydropyrimidin-1(2H)yl]benzoic acid] | 4.91
Cc1c(-c2ccnn2-c2ccc(C#N)cc2)c(=O)n(C)c(=O)n1-c1cccc(C(N)=O)c1 [Example 104, 3-[5-[1-(4-Cyanophenyl)1H-pyrazol-5-yl]-3,6-dimethyl-2,4-dioxo-3,4-dihydropyrimidin-1(2H)yl]benzamide] | 4.03
Cc1c(-c2ccnn2-c2ccc(C#N)cc2)c(=O)n(C)c(=O)n1-c1cccc(-c2ccccc2)c1 [Example 107, 4-(5-(1-(Biphenyl-3-yl)-3,6-dimethyl-2,4-dioxo-1,2,3,4-tetrahydropyrimidin-5-yl)-1H-pyrazol-1-yl)benzonitrile] | 5.27
CNC(=O)CCCn1c(=O)c(-c2ccnn2-c2ccc(C#N)cc2)c(C)n(-c2cccc(C(F)(F)F)c2)c1=O [Example 80, 4-[5-[1-(4-cyanophenyl)-1H-pyrazol-5-yl]-4-methyl-2,6-dioxo-3-(3-trifluoromethylphenyl)-2,3-dihydropyrimidin-1(6H)-yl]-N-methylbutaneamide] | 5.89
COc1ccc(-n2nccc2-c2c(C)n(-c3cccc(C(F)(F)F)c3)c(=O)n(C)c2=O)cc1 [Example 40, 5-(1-(4-methoxyphenyl)-1H-pyrazol-5-yl)-3,6-dimethyl-1-(3-(trifluoromethyl)phenyl)pyrimidin-2,4(1H,3H)-dione] | 5.08
Cc1c(-c2ccnn2-c2ccc(C#N)cc2)c(=O)n(C)c(=O)n1-c1cccc(C(=O)N(C)C)c1 [Example 106, 3-[5-[1-(4-cyanophenyl)1H-pyrazol-5-yl]-3,6-dimethyl-2,4-dioxo-3,4-dihydropyrimidin-1(2H)yl]-N,N-dimethylbenzamide] | 4.86
CN(C)C=Nc1c(-c2ccnn2-c2ccc(C#N)cc2)c(=O)n(C)c(=O)n1-c1cccc(C(F)(F)F)c1 [Example 28, N′-[5-[1-(4-cyanophenyl)-1H-pyrazol-5-yl]-1-methyl-2,6-dioxo-3-(3-trifluoromethylphenyl)-1,2,3,6-tetrahydropyrimidin-4-yl]-N,N-dimethylformimidamide] | 5.65
Cn1c(=O)c(-c2ccnn2-c2ccc(C#N)cc2)c(N)n(-c2cccc(C(F)(F)F)c2)c1=O [Example 58, 4-[5-[6-Amino-3-methyl-2,4-dioxo-1-(3-trifluoromethylphenyl)-1,2,3,4-tetrahydropyrimidin-5-yl]-1H-pyrazol-1-yl]benzonitrile] | 6.26
Cc1c(-c2ccnn2-c2ccc(C#N)cc2)c(=O)n(C)c(=O)n1-c1cccc(C#N)c1 [Example 10, 3-[5-[1-(4-cyanophenyl)-1H-pyrazol-5-yl]-3,6-dimethyl-2,4-dioxo-3,4-dihydropyrimidin-1(2H)-yl]benzonitrile] | 6.19
Cc1c(-c2ccnn2-c2ccc(F)cc2)c(=O)n(C)c(=O)n1-c1cccc(C(F)(F)F)c1 [Example 22, 5-[1-(4-fluorophenyl)-1H-pyrazol-5-yl]-3,6-dimethyl-1-(3-trifluoromethylphenyl)pyrimidin-2,4(1H,3H)-dione] | 6.10
Cc1c(-c2ccnn2-c2ccc(C#N)cc2)c(=O)n(C)c(=O)n1-c1cccc(C(C)(C)C)c1 [Example 38, 4-(5-(1-(3-tert-butylphenyl)-3,6-dimethyl-2,4-dioxo-1,2,3,4-tetrahydropyrimidin-5-yl)-1H-pyrazol-1-yl)benzonitrile] | 5.10
COc1ccc(Cn2c(=O)c(-c3ccnn3-c3ccc(C#N)cc3)c(C)n(-c3cccc(C(F)(F)F)c3)c2=O)cc1 [Example 9, 4-[5-[3-(4-methoxybenzyl)-6-methyl-2,4-dioxo-1-(3-trifluoromethylphenyl)-1,2,3,4-tetrahydropyrimidin-5-yl]-1H-pyrazol-1-yl]benzonitrile] | 5.53
COc1cccc(-n2c(C)c(-c3ccnn3-c3ccc(C#N)cc3)c(=O)n(C)c2=O)c1 [Example 12, 4-[5-[1-(3-methoxyphenyl)-3,6-dimethyl-2,4-dioxo-1,2,3,4-tetrahydropyrimidin-5-yl]-1H-pyrazol-1-yl]benzonitrile] | 5.83
Cc1c(-c2ccnn2-c2ccc(C#N)nc2)c(=O)n(C)c(=O)n1-c1cccc(C(F)(F)F)c1 [Example 23, 5-[5-[3,6-dimethyl-2,4-dioxo-1-(3-trifluoromethylphenyl)-1,2,3,4-tetrahydropyrimidin-5-yl]-1H-pyrazol-1-yl]picolinonitrile] | 6.19
Cc1c(-c2ccnn2-c2ccc(C#N)cc2)c(=O)n(CCC(=O)O)c(=O)n1-c1cccc(C(F)(F)F)c1 [Example 73, 3-[5-[1-(4-Cyanophenyl)-1H-pyrazol-5-yl]-4-methyl-2,6-dioxo-3-(3-trifluoromethylphenyl)-2,3-dihydropyrimidin-1(6H)-yl]propanoic acid] | 6.27

Other lines, results leading:

pIC50 | Molecule
6.48 | CCc1cccc(-n2c(C)c(-c3ccnn3-c3ccc(C#N)cc3)c(=O)n(C)c2=O)c1 [Example 108, 4-[5-[3,6-Dimethyl-2,4-dioxo-1-(3-ethylphenyl)-1,2,3,4-tetrahydropyrimidin-5-yl]-1H-pyrazol-1-yl]benzonitrile]
6.60 | 5-[1-(-chlorophenyl)-1H-pyrazol-5-yl]-3,6-dimethyl-1-(3-trifluoromethylphenyl)pyrimidin-2,4(1H,3H)-dione [Example 21]
6.74 | CNC(=O)Cn1c(=O)c(-c2ccnn2-c2ccc(C#N)cc2)c(C)n(-c2cccc(C(F)(F)F)c2)c1=O [Example 77, 2-[5-[1-(4-cyanophenyl)-1H-pyrazol-5-yl]-4-methyl-2,6-dioxo-3-(3-trifluoromethylphenyl)-2,3-dihydropyrimidin-1(6H)-yl]-N-methylacetamide]
6.77 | CC(=O)NCCn1c(=O)c(-c2ccnn2-c2ccc(C#N)cc2)c(C)n(-c2cccc(C(F)(F)F)c2)c1=O [Example 71, N-[2-[5-[1-(4-Cyanophenyl)-1H-pyrazol-5-yl]-4-methyl-2,6-dioxo-3-(3-trifluoromethylphenyl)-2,3-dihydropyrimidin-1(6H)-yl]ethyl]acetamide]
6.86 | Cc1c(-c2ccnn2-c2ccc(C#N)cc2)c(=O)n(CC(=O)O)c(=O)n1-c1cccc(C(F)(F)F)c1 [Example 72, 2-[5-[1-(4-Cyanophenyl)-1H-pyrazole-5-yl]-4-methyl-2,6-dioxo-3-(3-trifluoromethylphenyl)-2,3-dihydropyrimidin-1(6H)-yl]acetic acid]
6.95 | Cc1c(-c2ccnn2-c2ccc(C#N)cc2)c(=O)n(CC=O)c(=O)n1-c1cccc(C(F)(F)F)c1 [Example 68]
6.98 | CCOC(=O)Cn1c(=O)c(-c2ccnn2-c2ccc(C#N)cc2)c(C)n(-c2cccc(C(F)(F)F)c2)c1=O [Example 3]
7.07 | Cc1c(-c2ccnn2-c2ccc(C#N)cc2)c(=O)n(C)c(=O)n1-c1ccc(F)c(C(F)(F)F)c1 [Example 13, 4-[5-[1-(4-fluoro-3-trifluorophenyl)-3,6-dimethyl-2,4-dioxo-1,2,3,4-tetrahydropyrimidin-5-yl]-1H-pyrazol-1-yl]benzonitrile]
7.19 | Cc1c(-c2ccnn2-c2ccc(C#N)cc2)c(=O)n(CCCCCNC(=O)OC(C)(C)C)c(=O)n1-c1cccc(C(F)(F)F)c1 [Example 30, Tert-butyl 5-[5-[1-(4-cyanophenyl)-1H-pyrazol-5-yl]-4-methyl-2,6-dioxo-3-(3-trifluoromethyl)-2,3-dihydropyrimidine-1 (6H)-yl]pentylcarbamate]
7.33 | Cc1c(-c2ccnn2-c2ccc(C#N)cc2)c(=O)n(C)c(=O)n1-c1cccc([N+](=O)[O-])c1 [Example 18, 4-[5-[1-(3-nitrophenyl)-3,6-dimethyl-2,4-dioxo-1,2,3,4-tetrahydropyrimidin-5-yl]-1H-pyrazol-1-yl]benzonitrile]
7.37 | CNCCn1c(=O)c(-c2ccnn2-c2ccc(C#N)cc2)c(C)n(-c2cccc(C(F)(F)F)c2)c1=O [Example 70, 4-[5-[6-Methyl-3-(2-methylaminoethyl)-2,4-dioxo-1-(3-trifluoromethylphenyl)-1,2,3,4-tetrahydropyrimidin-5-yl]-1H-pyrazol-1-yl]benzonitrile]

same assay, conditions: at 100 μM

Inhibition ratio (%) | Molecule
90% | Cc1c(-c2ccnn2-c2ccc(C#N)cc2)c(=O)n(C)c(=O)n1-c1ccc(C(F)(F)F)cc1 [Example 16, 4-[5-[3,6-dimethyl-2,4-dioxo-1-(4-trifluoromethylphenyl)-1,2,3,4-tetrahydropyrimidin-5-yl]-1H-pyrazol-1-yl]benzonitrile]
83% | Cc1c(-c2ccnn2-c2ccccc2)c(=O)n(C)c(=O)n1-c1cccc(C(F)(F)F)c1 [Example 20, 3,6-dimethyl-5-(1-phenyl-1H-pyrazol-5-yl)-1-(3-trifluoromethylphenyl)pyrimidin-2,4(1H,3H)-dione]
